Entries after “also recorded” stand apart in the source; their conditions may differ.
System: microorganisms (e.g., bacteria, yeasts, fungi)
Assay: Targeting peptide binding to target microorganisms (Table 3)
Conditions: microorganism the targeting peptide binds; binding in aqueous buffers varied by peptide solubility, preferably 1x PBS

Substance | Target(s)
1T-36 (VYRHLRFIDGKLVEIRLERK; Peptide with targeting and/or antimicrobial activity) [Peptide 1T-36] | S. aureus; also recorded: S. epidermidis; also recorded: C. jeikeium; also recorded: C. xerosis; also recorded: C. striatum; also recorded: P. aeruginosa
1T-37 (YIVGALVILAVAGLIYSMLRKA; Peptide with targeting and/or antimicrobial activity) [Peptide 1T-37] | S. mutans; also recorded: S. aereus; also recorded: S. epidermidis; also recorded: C. jeikeium; also recorded: C. xerosis; also recorded: C. striatum; also recorded: P. aeruginosa
1T-38 (VMFVLTRGRSPRPMIPAY; Peptide with targeting and/or antimicrobial activity) [Peptide 1T-38] | S. mutans; also recorded: S. aereus; also recorded: S. epidermidis; also recorded: C. jeikeium; also recorded: C. xerosis; also recorded: C. striatum; also recorded: P. aeruginosa
1T-39 (FGFCVWMYQLLAGPPGPPA; Peptide with targeting and/or antimicrobial activity) [Peptide 1T-39] | S. mutans; also recorded: P. aeruginosa
1T-40 (QRVSLWSEVEHEFR; Peptide with targeting and/or antimicrobial activity) [Peptide 1T-40] | S. mutans; also recorded: P. aeruginosa
1T-41 (KRGSKIVIAIAVVLIVLAGVWVW; Peptide with targeting and/or antimicrobial activity) [Peptide 1T-41] | S. mutans; also recorded: S. aureus; also recorded: S. epidermidis; also recorded: C. jeikeium; also recorded: C. striatum; also recorded: P. aeruginosa
1T-42 (TVLDWLSLALATGLFVYLLVALLRADRA; Peptide with targeting and/or antimicrobial activity) [Peptide 1T-42] | S. aureus; also recorded: S. epidermidis; also recorded: C. xerosis; also recorded: C. striatum; also recorded: P. aeruginosa
1T-43 (DRCLSVLSWSPPKVSPLI; Peptide with targeting and/or antimicrobial activity) [Peptide 1T-43] | C. jeikium; also recorded: P. aeruginosa
1T-44 (DPALADFAAGMRAQVRT; Peptide with targeting and/or antimicrobial activity) [Peptide 1T-44] | S. mutans; also recorded: S. aureus; also recorded: S. epidermidis; also recorded: C. jeikeium; also recorded: C. striatum; also recorded: P. aeruginosa
1T-45 (WTKPSFTDLRLGFEVTLYFANR; Peptide with targeting and/or antimicrobial activity) [Peptide 1T-45] | S. aureus; also recorded: S. epidermidis; also recorded: C. striatum; also recorded: P. aeruginosa
1T-46 (FSFKQRVMFRKEVERLR; Peptide with targeting and/or antimicrobial activity) [Peptide 1T-46] | S. aureus; also recorded: S. epidermidis; also recorded: C. jeikeium; also recorded: C. xerosis; also recorded: C. striatum; also recorded: P. aeruginosa
1T-47 (VIKISVPGQVQMLIP; Peptide with targeting and/or antimicrobial activity) [Peptide 1T-47] | S. mutans; also recorded: S. epidermidis; also recorded: P. aeruginosa
1T-48 (KLQVHHGRATHTLLLQPPLCAPGTIR; Peptide with targeting and/or antimicrobial activity) [Peptide 1T-48] | S. aureus; also recorded: S. epidermidis; also recorded: C. jeikeium; also recorded: C. xerosis; also recorded: C. striatum; also recorded: P. aeruginosa
1T-49 (SLVRIHDQQPWVTRGAFIDAARTCS; Peptide with targeting and/or antimicrobial activity) [Peptide 1T-49] | S. aureus; also recorded: S. epidermidis; also recorded: C. jeikeium; also recorded: P. aeruginosa
1T-50 (HSDEPIPNILFKSDSVH; Peptide with targeting and/or antimicrobial activity) [Peptide 1T-50] | P. aeruginosa
1T-51 (GKPKRMPAEFIDGYGQALLAGA; Peptide with targeting and/or antimicrobial activity) [Peptide 1T-51] | S. aureus; also recorded: P. aeruginosa
1T-52 (DEYPAKLPLSDKGATEPRRH; Peptide with targeting and/or antimicrobial activity) [Peptide 1T-52] | S. aureus; also recorded: C. xerosis; also recorded: P. aeruginosa
1T-53 (SDILAEMFEKGELQTLVKDAAAKANA; Peptide with targeting and/or antimicrobial activity) [Peptide 1T-53] | P. aeruginosa
1T-54 (RWVSCNPSWRIQ; Peptide with targeting and/or antimicrobial activity) [Peptide 1T-54] | S. epidermidis; also recorded: C. xerosis; also recorded: C. striatum; also recorded: P. aeruginosa
1T-55 (NHKTLKEWKAKWGPEAVESWATLLG; Peptide with targeting and/or antimicrobial activity) [Peptide 1T-55] | C. xerosis; also recorded: P. aeruginosa
1T-56 (LALIGAGIWMIRKG; Peptide with targeting and/or antimicrobial activity) [Peptide 1T-56] | C. xerosis; also recorded: P. aeruginosa

Substance | Target(s)
1T-57 (RLEYRRLETQVEENPESGRRPMRG; Peptide with targeting and/or antimicrobial activity) [Peptide 1T-57] | P. aeruginosa
1T-58 (CDDLHALERAGKLDALLSA; Peptide with targeting and/or antimicrobial activity) [Peptide 1T-58] | P. aeruginosa
1T-59 (AVGNNLGKDNDSGHRGKKHRKHKHR; Peptide with targeting and/or antimicrobial activity) [Peptide 1T-59] | S. aureus; also recorded: S. epidermidis; also recorded: P. aeruginosa
1T-60 (YLTSLGLDAAEQAQGLLTILKG; Peptide with targeting and/or antimicrobial activity) [Peptide 1T-60] | S. aureus; also recorded: S. epidermidis; also recorded: C. jeikeium; also recorded: C. striatum; also recorded: P. aeruginosa
1T-61 (HATLLPAVREAISRQLLPALVPRG; Peptide with targeting and/or antimicrobial activity) [Peptide 1T-61] | P. aeruginosa
1T-62 (GCKGCAQRDPCAEPEPYFRLR; Peptide with targeting and/or antimicrobial activity) [Peptide 1T-62] | S. epidermidis; also recorded: P. aeruginosa
1T-63 (EPLILKELVRNLFLFCYARALR; Peptide with targeting and/or antimicrobial activity) [Peptide 1T-63] | S. aureus; also recorded: S. epidermidis; also recorded: C. jeikeium; also recorded: C. xerosis; also recorded: C. striatum; also recorded: P. aeruginosa
1T-64 (QTVHHIHMHVLGQRQMHWPPG; Peptide with targeting and/or antimicrobial activity) [Peptide 1T-64] | S. aureus; also recorded: S. epidermidis; also recorded: C. jeikeium; also recorded: C. xerosis; also recorded: C. striatum; also recorded: P. aeruginosa
1T-65 (HARAAVGVAELPRGAAVEVELIAAVRP; Peptide with targeting and/or antimicrobial activity) [Peptide 1T-65] | S. mutans; also recorded: S. aureus; also recorded: S. epidermidis; also recorded: C. jeikeium; also recorded: C. xerosis; also recorded: C. striatum; also recorded: P. aeruginosa
1T-66 (DTDCLSRAYAQRIDELDKQYAGIDKPL; Peptide with targeting and/or antimicrobial activity) [Peptide 1T-66] | S. mutans; also recorded: S. aureus; also recorded: S. epidermidis; also recorded: C. jeikeium; also recorded: C. xerosis; also recorded: C. striatum; also recorded: P. aeruginosa
1T-67 (GQRQRLTCGRVSGCSEGPSREAAR; Peptide with targeting and/or antimicrobial activity) [Peptide 1T-67] | S. aureus; also recorded: S. epidermidis; also recorded: C. jeikeium; also recorded: C. xerosis; also recorded: C. striatum; also recorded: P. aeruginosa
1T-68 (GGTKEIVYQRG; Peptide with targeting and/or antimicrobial activity) [Peptide 1T-68] | S. mutans; also recorded: S. aureus; also recorded: C. jeikeium; also recorded: C. xerosis; also recorded: C. striatum; also recorded: P. aeruginosa
1T-69 (ILSQEADRKKLF; Peptide with targeting and/or antimicrobial activity) [Peptide 1T-69] | S. mutans; also recorded: P. aeruginosa
1T-70 (NRQAQGERAHGEQQG; Peptide with targeting and/or antimicrobial activity) [Peptide 1T-70] | S. aureus; also recorded: C. jeikeium; also recorded: P. aeruginosa
1T-71 (KIDTNQWPPNKEG; Peptide with targeting and/or antimicrobial activity) [Peptide 1T-71] | P. aeruginosa
1T-72 (EPTDGVACKER; Peptide with targeting and/or antimicrobial activity) [Peptide 1T-72] | P. aeruginosa
1T-73 (GWWEELLHETILSKFKITKALELPIQL; Peptide with targeting and/or antimicrobial activity) [Peptide 1T-73] | S. pneumoniae
1T-74 (DIDWGRKISCAAGVAYGAIDGCATTV; Peptide with targeting and/or antimicrobial activity) [Peptide 1T-74] | S. pneumoniae
1T-75 (GVARGLQLGIKTRTQWGAATGAA; Peptide with targeting and/or antimicrobial activity) [Peptide 1T-75] | S. pneumoniae
1T-76 (EMRLSKFFRDFILWRKK; Peptide with targeting and/or antimicrobial activity) [Peptide 1T-76] | S. pneumoniae
1T-77 (EMRISRIILDFLFLRKK; Peptide with targeting and/or antimicrobial activity) [Peptide 1T-77] | S. pneumoniae

Source: US20110039762A1, “TARGETED ANTIMICROBIAL MOIETIES” (C3 JIAN, INC., priority 2009, published 2011)
